From US20240390464A1, “Treatment of Adults With Overweight or Obesity With or Without Weight-Related Comorbidities” (Carmot Therapeutics Inc., priority 2023, published 2024)
Entries after “also recorded” stand apart in the source; their conditions may differ. Marks after values point to notes of the source that are not given here. Numbered stars: 1 amine (or outer) side, 2 acyl side, 3 side chain; on linkers, the order of the positions; unused ones are H or OH. Square brackets hold non-standard residues; d marks the D form. Side chains are listed from the residue outwards. Peptide text beside a SMILES is read from it. * marks the point of attachment. Isobutyryl(2-(3-CN-5-F-Ph)) = CC(C)(C(=O)*)c1cc(F)cc(C#N)c1; C20 diacid = O=C(O)CCCCCCCCCCCCCCCCCCC(=O)*; γGlu = O=C(O)[C@H](CCC(=O)[*:2])N[*:1]; AEEA = NCCOCCOCC(=O)O; Aib = CC(C)(N)C(=O)O; βAla = NCCC(=O)O

Experiment: Phase 1 MAD Cohorts 6-8: safety and tolerability (TEAEs)
Type: in vivo, human
Settings: for Abdominal Distention / Constipation / Constipation Grade 1 / Constipation Grade 2 / Constipation Grade 3 / Diarrhea / Diarrhea Grade 1 / Diarrhea Grade 2 / Diarrhea Grade 3 / Drug-related TEAEs / Dyspepsia / Eructation / Fatal TEAEs / GI TEAEs (Total) / Gastroesophageal Reflux Disease / Nausea / Nausea Grade 1 / Nausea Grade 3 / Serious TEAEs / Subjects discontinued due to TEAE / Subjects with at least 1 TEAE / TEAE Severity: Grade 1 / TEAE Severity: Grade 2 / TEAE Severity: Grade 3 / Vomiting / Vomiting Grade 1 / Vomiting Grade 2 / Vomiting Grade 3 / Nausea Grade 2: N = 6
From the text: The primary objective of this study is to determine the safety and tolerability of CT-388 in otherwise healthy overweight and obese adult participants when administered once weekly over 4 consecutive weeks with titrated dosing.
Safety and tolerability will be assessed by monitoring adverse events (AE) including local injection-site reactions, measuring vital signs and ECGs, and performing clinical laboratory blood and urine analyses.
• Cohort 6: One weekly dose titrated across 4 consecutive weeks with CT-388 doses of . . . • 5.0 mg at Day 1 • 5.0 mg at Day 8 • 5.0 mg at Day 15 • 7.5 mg at Day 22 • . . . or matched placebo administered subcutaneously in the abdomen • Cohort 7: One weekly dose titrated across 4 consecutive weeks with CT-388 doses of . . . • 5.0 mg at Day 1 • 5.0 mg at Day 8 • 8.0 mg at Day 15 • 12.0 mg at Day 22 • . . . or matched placebo administered subcutaneously in the abdomen • Cohort 8: One weekly dose titrated across 4 consecutive weeks with CT-388 doses of . . . • 5.0 mg at Day 1 • 8.0 mg at Day 8 • 12.0 mg at Day 15 • 12.0 mg at Day 22 • . . . or matched placebo administered subcutaneously in the abdomen (the third dose in Cohort 8 can be lowered to 8.0 mg based on tolerability data from Cohort 7) • Cohort 9: One weekly dose titrated across 4 consecutive weeks with CT-388 doses of . . . • 8.0 mg at Day 1 • 8.0 mg at Day 8 • 12.0 mg at Day 15 • 16.0 mg at Day 22 • . . . or matched placebo administered subcutaneously in the abdomen • Cohort 10: the following two dosing options are proposed in Table 3 below:
A Phase 1, randomized, placebo-controlled, double-blind study was conducted where single ascending doses (SAD; n=40; 0.5-7.5 mg) and multiple ascending doses (MAD; n=24; 5-12 mg via titration in 3 cohorts) were administered as described in Example 1 to overweight/obese adults.
The 24 patients in the MAD arm were divided into three cohorts (Cohorts 6, 7, and 8) as shown in Table 5 below (EOT: end of treatment).
Briefly, participants were randomized 3:1 (6 to CT-388, 2 to placebo, n=8 per cohort). CT-388 was administered once weekly at a dose of 5 mg at baseline in all cohorts and up-titrated up to 12 mg in Cohorts 7 & 8. Oral Glucose Tolerance Test (OGTT) with 75 g glucose solution was performed at baseline (Day −1) and on Day 23. Blood was collected at 15 min prior to OGTT, at OGTT start, and in 30-minute intervals until 120 minutes. Fasting glucose, insulin, C-peptide, and HOMA-IR were measured/calculated at baseline and on Day 23.

Q: Which results are given for `CC[C@H](C)[C@H](NC(=O)[C@H](CC(C)C)NC(=O)[C@H](Cc1c[nH]c2ccccc12)NC(=O)[C@H](CCC(N)=O)NC(=O)[C@@H](NC(=O)[C@H](Cc1ccccc1)NC(=O)[C@H](C)NC(=O)[C@H](CCCCNC(=O)COCCOCCNC(=O)COCCOCCNC(=O)CC[C@H](NC(=O)CCCCCCCCCCCCCCCCCCC(=O)O)C(=O)O)NC(=O)[C@H](CCC(N)=O)NC(=O)[C@H](C)NC(=O)[C@@H](NC(=O)[C@H](CCCCN)NC(=O)[C@H](CC(=O)O)NC(=O)[C@H](CC(C)C)NC(=O)C(C)(C)NC(=O)[C@@H](NC(=O)[C@H](CO)NC(=O)[C@H](Cc1ccc(O)cc1)NC(=O)[C@H](CC(=O)O)NC(=O)[C@H](CO)NC(=O)[C@@H](NC(=O)[C@H](Cc1ccccc1)NC(=O)[C@@H](NC(=O)CNC(=O)[C@H](CCC(=O)O)NC(=O)CCNC(=O)C(C)(C)c1cc(F)cc(C#N)c1)[C@@H](C)O)[C@@H](C)O)[C@@H](C)CC)[C@@H](C)CC)C(C)C)C(=O)N[C@@H](C)C(=O)NCC(=O)NCC(=O)N1CCC[C@H]1C(=O)N[C@@H](CO)C(=O)N[C@@H](CO)C(=O)NCC(=O)N[C@@H](C)C(=O)N1CCC[C@H]1C(=O)N1CCC[C@H]1C(=O)N1CCC[C@H]1C(=O)N[C@@H](CO)C(N)=O` [CT-388] ({Isobutyryl(2-(3-CN-5-F-Ph))-βAla}-EGTFTSDYSI[Aib]LDKIAQK([AEEA-AEEA-γGlu-C20 diacid])AFVQWLIAGGPSSGAPPPS-NH2)?
A: Abdominal Distention (Cohort 6, 5/5/5/7.5 mg SC QW): 3 n (%); Constipation (Cohort 6, 5/5/5/7.5 mg SC QW): 3 n (%); Constipation Grade 1 (Cohort 6, 5/5/5/7.5 mg SC QW): 3 n (%); Constipation Grade 2 (Cohort 6, 5/5/5/7.5 mg SC QW): 0 n (%); Constipation Grade 3 (Cohort 6, 5/5/5/7.5 mg SC QW): 0 n (%); Diarrhea (Cohort 6, 5/5/5/7.5 mg SC QW): 2 n (%); Diarrhea Grade 1 (Cohort 6, 5/5/5/7.5 mg SC QW): 2 n (%); Diarrhea Grade 2 (Cohort 6, 5/5/5/7.5 mg SC QW): 0 n (%); Diarrhea Grade 3 (Cohort 6, 5/5/5/7.5 mg SC QW): 0 n (%); Drug-related TEAEs (Cohort 6, 5/5/5/7.5 mg SC QW): 33 # Events; Dyspepsia (Cohort 6, 5/5/5/7.5 mg SC QW): 1 n (%); Eructation (Cohort 6, 5/5/5/7.5 mg SC QW): 0 n (%); Fatal TEAEs (Cohort 6, 5/5/5/7.5 mg SC QW): 0 # Events; GI TEAEs (Total) (Cohort 6, 5/5/5/7.5 mg SC QW): 6 n (%); Gastroesophageal Reflux Disease (Cohort 6, 5/5/5/7.5 mg SC QW): 0 n (%); Nausea (Cohort 6, 5/5/5/7.5 mg SC QW): 6 n (%); Nausea Grade 1 (Cohort 6, 5/5/5/7.5 mg SC QW): 4 n (%); Nausea Grade 3 (Cohort 6, 5/5/5/7.5 mg SC QW): 0 n (%); Serious TEAEs (Cohort 6, 5/5/5/7.5 mg SC QW): 0 # Events; Subjects discontinued due to TEAE (Cohort 6, 5/5/5/7.5 mg SC QW): 0 n (%); Subjects with at least 1 TEAE (Cohort 6, 5/5/5/7.5 mg SC QW): 6 (100) n (%); TEAE Severity: Grade 1 (Cohort 6, 5/5/5/7.5 mg SC QW): 6 (100) n (%); TEAE Severity: Grade 2 (Cohort 6, 5/5/5/7.5 mg SC QW): 6 (100) n (%); TEAE Severity: Grade 3 (Cohort 6, 5/5/5/7.5 mg SC QW): 0 n (%); Vomiting (Cohort 6, 5/5/5/7.5 mg SC QW): 5 n (%); Vomiting Grade 1 (Cohort 6, 5/5/5/7.5 mg SC QW): 2 n (%); Vomiting Grade 2 (Cohort 6, 5/5/5/7.5 mg SC QW): 3 n (%); Vomiting Grade 3 (Cohort 6, 5/5/5/7.5 mg SC QW): 0 n (%); Nausea Grade 2 (Cohort 6, 5/5/5/7.5 mg SC QW, same subject experienced both mild and moderate events): 4 n (%); Abdominal Distention (Cohort 7, 5/5/8/12 mg SC QW): 0 n (%); Constipation (Cohort 7, 5/5/8/12 mg SC QW): 0 n (%); Constipation Grade 1 (Cohort 7, 5/5/8/12 mg SC QW): 0 n (%); Constipation Grade 2 (Cohort 7, 5/5/8/12 mg SC QW): 0 n (%); Constipation Grade 3 (Cohort 7, 5/5/8/12 mg SC QW): 0 n (%); Diarrhea (Cohort 7, 5/5/8/12 mg SC QW): 2 (33.3) n (%); Diarrhea Grade 1 (Cohort 7, 5/5/8/12 mg SC QW): 2 (33.3) n (%); Diarrhea Grade 2 (Cohort 7, 5/5/8/12 mg SC QW): 0 n (%); Diarrhea Grade 3 (Cohort 7, 5/5/8/12 mg SC QW): 0 n (%); Drug-related TEAEs (Cohort 7, 5/5/8/12 mg SC QW): 18 # Events; Dyspepsia (Cohort 7, 5/5/8/12 mg SC QW): 0 n (%); Eructation (Cohort 7, 5/5/8/12 mg SC QW): 2 (33.3) n (%); Fatal TEAEs (Cohort 7, 5/5/8/12 mg SC QW): 0 # Events; GI TEAEs (Total) (Cohort 7, 5/5/8/12 mg SC QW): 4 (66.7) n (%); Gastroesophageal Reflux Disease (Cohort 7, 5/5/8/12 mg SC QW): 0 n (%); Nausea (Cohort 7, 5/5/8/12 mg SC QW): 1 (16.7) n (%); Nausea Grade 1 (Cohort 7, 5/5/8/12 mg SC QW): 1 (16.7) n (%); Nausea Grade 2 (Cohort 7, 5/5/8/12 mg SC QW): 0 n (%); Nausea Grade 3 (Cohort 7, 5/5/8/12 mg SC QW): 0 n (%); Serious TEAEs (Cohort 7, 5/5/8/12 mg SC QW): 0 # Events; Subjects discontinued due to TEAE (Cohort 7, 5/5/8/12 mg SC QW): 0 n (%); Subjects with at least 1 TEAE (Cohort 7, 5/5/8/12 mg SC QW): 6 n (%); TEAE Severity: Grade 1 (Cohort 7, 5/5/8/12 mg SC QW): 6 n (%); TEAE Severity: Grade 2 (Cohort 7, 5/5/8/12 mg SC QW): 1 n (%); TEAE Severity: Grade 3 (Cohort 7, 5/5/8/12 mg SC QW): 0 n (%); Vomiting (Cohort 7, 5/5/8/12 mg SC QW): 2 (33.3) n (%); Vomiting Grade 1 (Cohort 7, 5/5/8/12 mg SC QW): 2 (33.3) n (%); Vomiting Grade 2 (Cohort 7, 5/5/8/12 mg SC QW): 0 n (%); Vomiting Grade 3 (Cohort 7, 5/5/8/12 mg SC QW): 0 n (%); Abdominal Distention (Cohort 8, 5/8/12/12 mg SC QW): 0 n (%); Constipation (Cohort 8, 5/8/12/12 mg SC QW): 1 (16.7) n (%); Constipation Grade 1 (Cohort 8, 5/8/12/12 mg SC QW): 1 (16.7) n (%); Constipation Grade 2 (Cohort 8, 5/8/12/12 mg SC QW): 0 n (%); Constipation Grade 3 (Cohort 8, 5/8/12/12 mg SC QW): 0 n (%); Diarrhea (Cohort 8, 5/8/12/12 mg SC QW): 3 (50.0) n (%); Diarrhea Grade 1 (Cohort 8, 5/8/12/12 mg SC QW): 3 (50.0) n (%); Diarrhea Grade 2 (Cohort 8, 5/8/12/12 mg SC QW): 0 n (%); Diarrhea Grade 3 (Cohort 8, 5/8/12/12 mg SC QW): 0 n (%); Drug-related TEAEs (Cohort 8, 5/8/12/12 mg SC QW): 25 # Events; Dyspepsia (Cohort 8, 5/8/12/12 mg SC QW): 0 n (%); Eructation (Cohort 8, 5/8/12/12 mg SC QW): 1 (16.7) n (%); Fatal TEAEs (Cohort 8, 5/8/12/12 mg SC QW): 0 # Events; GI TEAEs (Total) (Cohort 8, 5/8/12/12 mg SC QW): 5 (83.3) n (%); Gastroesophageal Reflux Disease (Cohort 8, 5/8/12/12 mg SC QW): 2 (33.3) n (%); Nausea (Cohort 8, 5/8/12/12 mg SC QW): 3 (50.0) n (%); Nausea Grade 1 (Cohort 8, 5/8/12/12 mg SC QW): 2 (33.3) n (%); Nausea Grade 2 (Cohort 8, 5/8/12/12 mg SC QW): 1 (16.7) n (%); Nausea Grade 3 (Cohort 8, 5/8/12/12 mg SC QW): 0 n (%); Serious TEAEs (Cohort 8, 5/8/12/12 mg SC QW): 0 # Events; Subjects discontinued due to TEAE (Cohort 8, 5/8/12/12 mg SC QW): 0 n (%); Subjects with at least 1 TEAE (Cohort 8, 5/8/12/12 mg SC QW): 6 n (%); TEAE Severity: Grade 1 (Cohort 8, 5/8/12/12 mg SC QW): 6 n (%); TEAE Severity: Grade 2 (Cohort 8, 5/8/12/12 mg SC QW): 3 n (%); TEAE Severity: Grade 3 (Cohort 8, 5/8/12/12 mg SC QW): 0 n (%); Vomiting (Cohort 8, 5/8/12/12 mg SC QW): 2 (33.3) n (%); Vomiting Grade 1 (Cohort 8, 5/8/12/12 mg SC QW): 2 (33.3) n (%); Vomiting Grade 2 (Cohort 8, 5/8/12/12 mg SC QW): 1 (16.7) n (%); Vomiting Grade 3 (Cohort 8, 5/8/12/12 mg SC QW): 0 n (%); tolerability (MAD cohorts, 5 mg up-titrated to 12 mg SC QW over 4 weeks): generally well tolerated; also recorded: generally well-tolerated; also recorded: favorable tolerability profile
